In PubChem BioAssay AID1963976 (Molecular Pharmacology Branch, DTP, NCI, 2024):
pIC50: −log10 of the molar value.

Tested on: 435261-313-R-J1-PDC tumor spheroid viability
Assay: Anticancer human tumor 435261-313-R-J1-PDC patient-derived colon adenocarcinoma cell line growth inhibition [PI3K]
Details: spheroids with HUVEC and MSC; for pIC50: curve of first compound; for viability, T/C: stronger effect = lower value
How it was run: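 Tumor cells were combined with HUVEC and MSCs into spheroids, then dosed with PI3K-inhibitor combinations over half-log ranges capped near clinical Cmax or 10 microM.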

[1] = second compound 0.00316 µM, first compound 0.0316 µM
[2] = second compound 0.00316 µM, first compound 0.1 µM
[3] = second compound 0.00316 µM, first compound 0.316 µM
[4] = second compound 0.00316 µM, first compound 1 µM
[5] = second compound 0.01 µM, first compound 0.0316 µM
[6] = second compound 0.01 µM, first compound 0.1 µM
[7] = second compound 0.01 µM, first compound 0.316 µM
[8] = second compound 0.01 µM, first compound 1 µM
[9] = second compound 0.0316 µM, first compound 0.0316 µM
[10] = second compound 0.0316 µM, first compound 0.1 µM
[11] = second compound 0.0316 µM, first compound 0.316 µM
[12] = second compound 0.0316 µM, first compound 1 µM
[13] = second compound 0.1 µM, first compound 0.0316 µM
[14] = second compound 0.1 µM, first compound 0.1 µM
[15] = second compound 0.1 µM, first compound 0.316 µM
[16] = second compound 0.1 µM, first compound 1 µM
[17] = second compound 0.316 µM, first compound 0.0316 µM
[18] = second compound 0.316 µM, first compound 0.1 µM
[19] = second compound 0.316 µM, first compound 0.316 µM
[20] = second compound 0.316 µM, first compound 1 µM
[21] = second compound 1 µM, first compound 0.0316 µM
[22] = second compound 1 µM, first compound 0.1 µM
[23] = second compound 1 µM, first compound 0.316 µM
[24] = second compound 1 µM, first compound 1 µM
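Further: spheroids exposed to compounds for 7 days.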

Question: With CNC(=O)c1ccc(N2C(=S)N(c3ccc(C#N)c(C(F)(F)F)c3)C(=O)C2(C)C)cc1F + CC(Nc1ccc2c(c1)OCCn1cc(N3C(=O)OCC3C(F)F)nc1-2)C(N)=O as the compound, how does the pIC50 (second compound 0.00316 µM) read?
Answer: < 5.00

Question: What about the pIC50 (second compound 0.01 µM) of the same compound?
Answer: < 5.00

Question: What about the pIC50 (second compound 0.0316 µM) of the same compound?
Answer: < 5.00

Question: And the pIC50 (second compound 0.1 µM)?
Answer: > 7.50

Question: And the pIC50 (second compound 0.316 µM)?
Answer: > 7.50

Question: What about the pIC50 (second compound 1 µM) of the same compound?
Answer: > 7.50

Question: And the viability, T/C [1]?
Answer: 73.1%

Question: And the viability, T/C [2]?
Answer: 95.5%

Question: And the viability, T/C [3]?
Answer: 74.7%

Question: What about the viability, T/C [4] of the same compound?
Answer: 101%

Question: What about the viability, T/C (second compound 0.00316 µM, first compound 3.16 µM) of the same compound?
Answer: 106%

Question: What about the viability, T/C (second compound 0.00316 µM, first compound 10 µM) of the same compound?
Answer: 93.2%

Question: What about the viability, T/C [5] of the same compound?
Answer: 81.7%

Question: What about the viability, T/C [6] of the same compound?
Answer: 92.6%

Question: And the viability, T/C [7]?
Answer: 77.2%

Question: What about the viability, T/C [8] of the same compound?
Answer: 96%

Question: And the viability, T/C (second compound 0.01 µM, first compound 3.16 µM)?
Answer: 141%

Question: And the viability, T/C (second compound 0.01 µM, first compound 10 µM)?
Answer: 123%

Question: What about the viability, T/C [9] of the same compound?
Answer: 69.8%

Question: What about the viability, T/C [10] of the same compound?
Answer: 77.3%

Question: What about the viability, T/C [11] of the same compound?
Answer: 57.7%

Question: What about the viability, T/C [12] of the same compound?
Answer: 82.9%

Question: And the viability, T/C (second compound 0.0316 µM, first compound 3.16 µM)?
Answer: 84.6%

Question: And the viability, T/C (second compound 0.0316 µM, first compound 10 µM)?
Answer: 68.2%

Question: What about the viability, T/C [13] of the same compound?
Answer: 48.9%

Question: What about the viability, T/C [14] of the same compound?
Answer: 28.5%

Question: And the viability, T/C [15]?
Answer: 44.9%

Question: What about the viability, T/C [16] of the same compound?
Answer: 51.9%

Question: What about the viability, T/C (second compound 0.1 µM, first compound 3.16 µM) of the same compound?
Answer: 36.8%

Question: And the viability, T/C (second compound 0.1 µM, first compound 10 µM)?
Answer: 29.6%

Question: What about the viability, T/C [17] of the same compound?
Answer: 22.3%

Question: And the viability, T/C [18]?
Answer: 19.2%

Question: And the viability, T/C [19]?
Answer: 15.5%

Question: What about the viability, T/C [20] of the same compound?
Answer: 24.6%

Question: And the viability, T/C (second compound 0.316 µM, first compound 3.16 µM)?
Answer: 24%

Question: What about the viability, T/C (second compound 0.316 µM, first compound 10 µM) of the same compound?
Answer: 17.5%

Question: And the viability, T/C [21]?
Answer: 15.5%

Question: And the viability, T/C [22]?
Answer: 15.6%

Question: What about the viability, T/C [23] of the same compound?
Answer: 15.3%

Question: And the viability, T/C [24]?
Answer: 15.2%

Question: What about the viability, T/C (second compound 1 µM, first compound 3.16 µM) of the same compound?
Answer: 18.8%

Question: And the viability, T/C (second compound 1 µM, first compound 10 µM)?
Answer: 12.8%

Question: How did the pIC50 (second compound 0.00316 µM) turn out when CCN1CCN(Cc2ccc(Nc3ncc(F)c(-c4cc(F)c5nc(C)n(C(C)C)c5c4)n3)nc2)CC1 + COc1c(OCCCN2CCOCC2)ccc2c3n(c(=NC(=O)c4cnc(N)nc4)nc12)CCN3 was run?
Answer: 7.28

Question: What about the pIC50 (second compound 0.01 µM) of the same compound?
Answer: > 8.50

Question: What about the pIC50 (second compound 0.0316 µM) of the same compound?
Answer: > 8.50

Question: And the pIC50 (second compound 0.1 µM)?
Answer: > 8.50

Question: What about the pIC50 (second compound 0.316 µM) of the same compound?
Answer: > 8.50

Question: What about the pIC50 (second compound 1 µM) of the same compound?
Answer: > 8.50

Question: What about the viability, T/C (second compound 0.00316 µM, first compound 0.00316 µM) of the same compound?
Answer: 49.3%

Question: And the viability, T/C (second compound 0.00316 µM, first compound 0.01 µM)?
Answer: 57.2%

Question: What about the viability, T/C [1] of the same compound?
Answer: 65.2%

Question: And the viability, T/C [2]?
Answer: 35.8%

Question: And the viability, T/C [3]?
Answer: 40.6%

Question: And the viability, T/C [4]?
Answer: 46.6%

Question: What about the viability, T/C (second compound 0.01 µM, first compound 0.00316 µM) of the same compound?
Answer: 42.3%

Question: And the viability, T/C (second compound 0.01 µM, first compound 0.01 µM)?
Answer: 39.8%

Question: What about the viability, T/C [5] of the same compound?
Answer: 35.4%

Question: What about the viability, T/C [6] of the same compound?
Answer: 33%

Question: And the viability, T/C [7]?
Answer: 32.7%

Question: What about the viability, T/C [8] of the same compound?
Answer: 42.5%

Question: And the viability, T/C (second compound 0.0316 µM, first compound 0.00316 µM)?
Answer: 28.9%

Question: And the viability, T/C (second compound 0.0316 µM, first compound 0.01 µM)?
Answer: 22.6%

Question: What about the viability, T/C [9] of the same compound?
Answer: 24.1%

Question: What about the viability, T/C [10] of the same compound?
Answer: 23.3%

Question: What about the viability, T/C [11] of the same compound?
Answer: 26.6%

Question: What about the viability, T/C [12] of the same compound?
Answer: 25.2%

Question: And the viability, T/C (second compound 0.1 µM, first compound 0.00316 µM)?
Answer: 15.2%

Question: And the viability, T/C (second compound 0.1 µM, first compound 0.01 µM)?
Answer: 15.4%

Question: And the viability, T/C [13]?
Answer: 18.1%

Question: What about the viability, T/C [14] of the same compound?
Answer: 13.7%

Question: And the viability, T/C [15]?
Answer: 15.6%

Question: And the viability, T/C [16]?
Answer: 16.7%

Question: What about the viability, T/C (second compound 0.316 µM, first compound 0.00316 µM) of the same compound?
Answer: 8.47%

Question: What about the viability, T/C (second compound 0.316 µM, first compound 0.01 µM) of the same compound?
Answer: 8.29%

Question: What about the viability, T/C [17] of the same compound?
Answer: 8.24%

Question: What about the viability, T/C [18] of the same compound?
Answer: 6.93%

Question: What about the viability, T/C [19] of the same compound?
Answer: 8.43%

Question: And the viability, T/C [20]?
Answer: 9.13%

Question: And the viability, T/C (second compound 1 µM, first compound 0.00316 µM)?
Answer: 4.09%

Question: What about the viability, T/C (second compound 1 µM, first compound 0.01 µM) of the same compound?
Answer: 3.66%

Question: What about the viability, T/C [21] of the same compound?
Answer: 3.83%

Question: And the viability, T/C [22]?
Answer: 2.75%

Question: And the viability, T/C [23]?
Answer: 3.7%

Question: What about the viability, T/C [24] of the same compound?
Answer: 3.49%
